Test results reported in ChEMBL document CHEMBL1777797, “Macrocyclic lactams as potent Hsp90 inhibitors with excellent tumor exposure and extended biomarker activity” (Bioorg Med Chem Lett, 2011).
Values after ≈ are worked out from the molar mass of the structure shown.

Key:
[1] = Solubility of the compound; format: physicochemical
HCT-116 = test: Antiproliferative activity against human HCT116 cells; format: functional, cell-based
Heat shock protein HSP90 = Heat shock protein HSP90 (Homo sapiens, UniProt P07900+P08238); test: Inhibition of HSP90 in human HCT-116 cells expressing V-Src-firefly luciferase fusion protein after 3 to 6 hrs; format: cell-based
[2] = Half life in rat liver microsomes; format: ADME, Microsome
[3] = Inhibition of HSP90 by fluorescence polarization assay
[4] = Antiproliferative activity against P-gp overexpressing human KBV1 cells; settings: kb-v1
[5] = Drug level in tumor of human MDA-MB-361 xenograft in vivo model at 50 mg/kg, po measured at 6 hrs post dose; format: ADME, organism-based, Neoplasm; design: dose 50 mg/kg, route oral; settings: read-out: Drug uptake
A549 = test: Antiproliferative activity against human A549 cells
MDA-MB-361 = test: Antiproliferative activity against human MDA-MB-361 cells
[6] = Antiproliferative activity against human KB 8.5 cells
[7] = Plasma concentration in human MDA-MB-361 xenograft in vivo model at 50 mg/kg, po measured at 24 hrs post dose; format: ADME, organism-based; design: dose 50 mg/kg, route oral
T98G = test: Antiproliferative activity against human T98G cells
DU-145 = test: Antiproliferative activity against human DU145 cells
[8] = Drug level in tumor of human MDA-MB-361 xenograft in vivo model at 50 mg/kg, po measured at 24 hrs post dose; format: ADME, organism-based, Neoplasm; design: dose 50 mg/kg, route oral; settings: read-out: Drug uptake
NCI-H1975 = test: Antiproliferative activity against human NCI-H1975 cells
[9] = Antiproliferative activity against human U87MG cells; settings: u-87mg atcc
[10] = Plasma concentration human MDA-MB-361 xenograft in vivo model at 50 mg/kg, po measured at 6 hrs post dose; format: ADME, organism-based; design: dose 50 mg/kg, route oral
[11] = Antiproliferative activity against human WM266.4 cells; settings: wm 266-4
BT-474 = test: Antiproliferative activity against human BT474 cells
A-375 = test: Antiproliferative activity against human A375 cells
KB = test: Antiproliferative activity against human KB cells

Structure (SMILES) | solubility [1] | EC50 (HCT-116) | IC50 (Heat shock protein HSP90) | half-life [2] | IC50 [3] | other results
Cc1c2c(n3c1CCCNC[C@H](C)Nc1cc-3ccc1C(N)=O)CC(C)(C)CC2=O | > 100 µg/mL |  |  |  |  | 
Cc1c2c(n3c1CCCN(C)C(=O)[C@H](C)Nc1cc-3ccc1C(N)=O)CC(C)(C)CC2=O | 34 µg/mL (≈ 77.9 µM) | 80 nM | 60 nM | > 30 min |  | 
CC(=O)N1CCc2c(C)c3c(n2-c2ccc(C(N)=O)c(c2)N[C@@H](C)CC1)CC(C)(C)CC3=O |  |  | 108 nM |  | 111 nM | 
Cc1c2c(n3c1CCCN[C@H](C)CNc1cc-3ccc1C(N)=O)CC(C)(C)CC2=O | > 100 µg/mL | 43 nM | 47 nM | > 30 min | 91 nM | 
Cc1c2c(n3c1CCN(C(=O)CN)CC[C@H](C)Nc1cc-3ccc1C(N)=O)CC(C)(C)CC2=O |  | 1010 nM | 917 nM |  | 90 nM | 
Cc1c2c(n3c1CCN(C(=O)CCN)CC[C@H](C)Nc1cc-3ccc1C(N)=O)CC(C)(C)CC2=O | > 100 µg/mL | 4890 nM | 6183 nM | > 30 min | 200 nM | 
Cc1c2c(n3c1CCN(C(=O)[C@@H](C)N)CC[C@H](C)Nc1cc-3ccc1C(N)=O)CC(C)(C)CC2=O | > 100 µg/mL |  |  |  | 119 nM | 
Cc1c2c(n3c1CCN(C(=O)[C@H](C)N)CC[C@H](C)Nc1cc-3ccc1C(N)=O)CC(C)(C)CC2=O | > 100 µg/mL |  |  |  |  | 
CC(=O)NCC(=O)N1CCc2c(C)c3c(n2-c2ccc(C(N)=O)c(c2)N[C@@H](C)CC1)CC(C)(C)CC3=O | 5 µg/mL (≈ 9.85 µM) | 1550 nM | 674 nM | > 30 min | 140 nM | 
Cc1c2c(n3c1CCN(C(=O)CN(C)C)CC[C@H](C)Nc1cc-3ccc1C(N)=O)CC(C)(C)CC2=O | > 100 µg/mL | 168 nM | 109 nM | 3 min | 140 nM | 
CC(=O)N1CCCc2c(C)c3c(n2-c2ccc(C(N)=O)c(c2)N[C@@H](C)C1)CC(C)(C)CC3=O | 69 µg/mL (≈ 153 µM) | 194 nM | 111 nM | 11 min | 219 nM | 
CC(=O)N1CCCc2c(C)c3c(n2-c2ccc(C(N)=O)c(c2)NC[C@H]1C)CC(C)(C)CC3=O | > 100 µg/mL | 1900 nM | 1159 nM | 12 min | 953 nM | 
Cc1c2c(n3c1CCCN(C(=O)CN(C)C)[C@H](C)CNc1cc-3ccc1C(N)=O)CC(C)(C)CC2=O | > 100 µg/mL | 3260 nM | > 5000 nM | > 30 min | > 5000 nM | 
Cc1c2c(n3c1CCCN(C(=O)[C@@H](C)N)[C@H](C)CNc1cc-3ccc1C(N)=O)CC(C)(C)CC2=O | > 100 µg/mL | > 5000 nM | > 5000 nM | > 30 min | 555 nM | 
Cc1c2c(n3c1CC(=O)NCCCNc1cc-3ccc1C(N)=O)CC(C)(C)CC2=O |  |  |  |  | 6830 nM | 
Cc1c2c(n3c1CC(=O)NCC[C@H](C)Nc1cc-3ccc1C(N)=O)CC(C)(C)CC2=O | > 100 µg/mL | 815 nM | 522 nM | > 30 min | 214 nM | 
Cc1c2c(n3c1CC(=O)N(C)CC[C@H](C)Nc1cc-3ccc1C(N)=O)CC(C)(C)CC2=O | > 100 µg/mL | 247 nM | 160 nM | > 30 min | 156 nM | 
Cc1c2c(n3c1CC(=O)N(C(C)C)CC[C@H](C)Nc1cc-3ccc1C(N)=O)CC(C)(C)CC2=O | > 100 µg/mL | 865 nM | 278 nM | 12 min | 608 nM | 
COCCN1CC[C@H](C)Nc2cc(ccc2C(N)=O)-n2c(c(C)c3c2CC(C)(C)CC3=O)CC1=O | > 100 µg/mL | 359 nM | 108 nM | > 30 min | 222 nM | 
Cc1c2c(n3c1CC(=O)N(CCN(C)C)CC[C@H](C)Nc1cc-3ccc1C(N)=O)CC(C)(C)CC2=O | > 100 µg/mL | 330 nM | 249 nM | > 30 min | 191 nM | 
CC(=O)NCCN1CC[C@H](C)Nc2cc(ccc2C(N)=O)-n2c(c(C)c3c2CC(C)(C)CC3=O)CC1=O | > 100 µg/mL | > 5000 nM | > 5000 nM | > 30 min | 407 nM | 
Cc1c2c(n3c1CCCNC(=O)[C@H](C)Nc1cc-3ccc1C(N)=O)CC(C)(C)CC2=O | > 100 µg/mL |  | 79 nM | > 30 min | 82 nM | IC50 [4]: > 1000 nM; concentration at 6 h [5]: 2130 ng/g; IC50 (A549): 23 nM; IC50 (MDA-MB-361): 111 nM; IC50 [6]: 49 nM; concentration at 24 h [7]: 8 ng/mL; IC50 (T98G): 42 nM; IC50 (DU-145): 45 nM; concentration at 24 h [8]: 1270 ng/g; IC50 (NCI-H1975): 47 nM; IC50 [9]: 80 nM; concentration at 6 h [10]: 146 ng/mL; IC50 [11]: 92 nM; IC50 (BT-474): 23 nM; IC50 (A-375): 23 nM; IC50 (KB): 22 nM
Cc1c2c(n3c1CCCNC(=O)[C@@H](C)Nc1cc-3ccc1C(N)=O)CC(C)(C)CC2=O |  | 175 nM | 123 nM |  | 268 nM | 
Cc1c2c(n3c1CCCN(CCN)C(=O)[C@H](C)Nc1cc-3ccc1C(N)=O)CC(C)(C)CC2=O | > 100 µg/mL | > 20000 nM | > 20000 nM |  | 1180 nM | 
CC(=O)NCCN1CCCc2c(C)c3c(n2-c2ccc(C(N)=O)c(c2)N[C@@H](C)C1=O)CC(C)(C)CC3=O | > 100 µg/mL | 17900 nM | 15771 nM | > 30 min | 240 nM | 
Cc1c2c(n3c1CCCNC(=O)C[C@H](C)Nc1cc-3ccc1C(N)=O)CC(C)(C)CC2=O |  | 3330 nM | 1842 nM |  | 337 nM | 
